Measurements: patent US20030119742A1, “Methods and compositions to treat cardiovascular disease using 139, 258, 1261, 1486, 2398, 2414, 7660, 8587,10183, 10550, 12680, 17921, 32248, 60489 or 93804” (Millennium Pharmaceuticals, Inc., priority 2001, published 2003)

B1: CD40L: cytokine used to stimulate endothelial cells or monocyte/macrophages (protein, UniProt P29965 113-261, looked up)
CD40 ligand, soluble form: MQKGDQNPQIAAHVISEASSKTTSVLQWAEKGYYTMSNNLVTLENGKQLTVKRQGLYYIYAQVTFCSNREASSQAPFIASLCLKSPGRFERILLRAANTHSSAKPCGQQSIHLGGVFELQPGASVFVNVTDPSQVSHGTGFTSFGLLKL
B2: IFNgamma: cytokine used to stimulate endothelial cells or monocyte/macrophages (protein, UniProt P01579 24-161, looked up)
Interferon gamma: QDPYVKEAENLKKYFNAGHSDVADNGTLFLGILKNWKEESDRKIMQSQIVSFYFKLFKNFKDDQSIQKSVETIKEDMNVKFFNSNKKKRDDFEKLTNYSVTDLNVQRKAIHELIQVMAELSPAAKTGKRKRSQMLFRG

Legend:
2398 = settings: endothelial cells
Excerpt: (§1) This example describes the TaqMan™ procedure. The Taqman™ procedure is a quantitative, reverse transcription PCR-based approach for detecting mRNA. The RT-PCR reaction exploits the 5′ nuclease activity of AmpliTaq Gold™ DNA Polymerase to cleave a TaqMan™ probe during PCR. Briefly, cDNA was generated from the samples of interest, e.g., heart, kidney, liver, skeletal muscle, and various vessels, and used as the starting material for PCR amplification. In addition to the 5′ and 3′ gene-specific primers, a gene-specific oligonucleotide probe (complementary to the region being amplified) was included in the reaction (i.e., the Taqman™ probe). […]
(§2) During the PCR reaction, cleavage of the probe separates the reporter dye and the quencher dye, resulting in increased fluorescence of the reporter. Accumulation of PCR products is detected directly by monitoring the increase in fluorescence of the reporter dye. When the probe is intact, the proximity of the reporter dye to the quencher dye results in suppression of the reporter fluorescence. […]

1261 mRNA = assay: TaqMan analysis of 1261 mRNA in human microvascular endothelial cells (HMVEC) from the heart; assay type: cell-based; settings: HMVEC from the heart treated with the factor
10183 mRNA = assay: TaqMan analysis of 10183 mRNA in in vivo marmoset models
Excerpt: As assessed by TaqMan analysis, 10183 mRNA is repressed by probucol and cerivastatin/fenofibrate in in vivo marmoset models. Probucol is used clinically for the treatment of atherosclerosis/coronary artery disease. Genes that are regulated by probucol in animal models and/or in vitro models are predicted to be responsible for the therapeutic benefit of this agent and represent new therapeutic targets for the treatment of cardiovascular disease/atherosclerosis/dyslipidemia/lipid disorders. Fibrates are used clinically for the reduction of triglycerides and statins for the reduction of cholesterol, both well-defined risk factor for atherosclerosis/coronary artery disease. Genes that are regulated by this combination treatment in animal models and/or in vitro models are predicted to be responsible for the therapeutic benefit of these agents and represent new therapeutic targets for the treatment of cardiovascular disease/atherosclerosis/dyslipidemia/lipid disorders. […] PPAR alpha agonists are used clinically for the reduction of triglycerides and statins for the reduction of cholesterol, both well-defined risk factor for atherosclerosis/coronary artery disease. […]

1486 mRNA = assay: TaqMan analysis of 1486 mRNA in livers of treated marmosets; assay type: in vivo, marmoset
Excerpt: as §1, §2

10550 mRNA = assay: TaqMan analysis of 10550 mRNA in in vivo marmoset models
Excerpt: as §1, §2

12680 mRNA = assay: TaqMan analysis of 12680 mRNA in in vivo marmoset models
Excerpt: as §1, §2

2414 mRNA = assay: TaqMan analysis of 2414 mRNA during cytokine stimulation of endothelial cells and monocyte/macrophages; assay type: cell-based; settings: cytokine stimulation of either endothelial cells or monocyte/macrophages
Excerpt: CD40L, TNFalpha, IL-1, and IFNgamma were used to stimulate either endothelial cells or monocyte/macrophages. These cytokines initiate/sustain the atherosclerotic pathogenesis
This example describes the TaqMan™ procedure.

32248 mRNA = assay: TaqMan analysis of 32248 mRNA in monkey liver model; assay type: in vivo
Excerpt: As assessed by TaqMan analysis, 32248 mRNA was repressed by n-3 polyunsaturated fatty acid in monkey liver model. […] Genes that are regulated by polyunsaturated fatty acids in animal models and/or in vitro models are predicted to be responsible for the therapeutic benefit of this agent and represent new therapeutic targets for the treatment of cardiovascular disease/atherosclerosis/dyslipidemia/lipid disorders. […] Cholestyramine is used clinically for the reduction of cholesterol, a defined risk factor for atherosclerosis/coronary artery disease. Genes that are regulated by cholestyramine in animal models and/or in vitro models are predicted to be responsible for the therapeutic benefit of this agent and represent new therapeutic targets for the treatment of cardiovascular disease/atherosclerosis/dyslipidemia/lipid disorders. Fibrates are used clinically for the reduction of triglycerides and statins for the reduction of cholesterol, both well-defined risk factor for atherosclerosis/coronary artery disease. Genes that are regulated by this combination treatment in animal models and/or in vitro models are predicted to be responsible for the therapeutic benefit of these agents and represent new therapeutic targets for the treatment of cardiovascular disease/atherosclerosis/dyslipidemia/lipid disorders. 32248 was highly expressed in human liver. […]

Molecule | expression of human 1261 mRNA (1261 mRNA) | expression of 2414 mRNA (2414 mRNA) | also measured
VEGF | upregulated |  | 2398 expression 2398: upregulated
CC(C)(Sc1cc(C(C)(C)C)c(O)c(C(C)(C)C)c1)Sc1cc(C(C)(C)C)c(O)c(C(C)(C)C)c1 [probucol] |  |  | 10183 mRNA (10183 mRNA): repressed; 1486 mRNA (1486 mRNA): repressed; 10550 mRNA (10550 mRNA): repressed; 12680 mRNA (12680 mRNA): repressed
TNF-alpha | upregulated | up-regulated | 
IL-1beta: pro-angiogenic factor interleukin 1 beta | upregulated |  | 
n-3 polyunsaturated fatty acid |  |  | 32248 mRNA (32248 mRNA): repressed
B1 |  | up-regulated | 
B2 |  | up-regulated | 
